Values quoted from earlier work as cited in paper PMC4273976 (ACS chemical biology, 2014).

Tested on: EphA4-dependent growth cone collapse
Details: 5 μM peptide, nasal retinal explants; cited from earlier work

Sequence: KYLPYWPVLSSL
- inhibition of ephrin-A5-induced growth cone collapse: blocked
